Measurements from patent US4450269A, “Mono-5-substituted-3-chloro-4H-1,2,6-thiadiazin-4-one antifungal agents” (FMC Corporation, priority 1980, dated 1984).
Read-outs that look alike come from different tables or passages of the source.

Experiments:
[1] = test system: Phytophthora infestans; format: cell-based; settings: PI, 48 hours
[2] = test system: Fusarium solani; test: Mycelial growth test; format: cell-based; settings: Fusarium solani, 72 h; for inhibition at 5 ppm / inhibition at 10 ppm / inhibition at 20 ppm: PS, 72 hours, read-out: Percent Fungus Growth Inhibition; for inhibition at 40 ppm: read-out: Percent Fungus Growth Inhibition, PS, 40 ppm, 72 hours

Row | Compound | Spore Germination Rating ([1]; 1.0 ppm) | Spore Germination Rating ([1]; 2.5 ppm) | Spore Germination Rating ([1]; 10 ppm) | Spore Germination Rating ([1]; 40 ppm) | inhibition at 5 ppm [2] [%] | inhibition at 10 ppm [2] [%] | inhibition at 20 ppm [2] [%] | inhibition at 40 ppm [2] [%]
1 | Cc1cc(Cl)ccc1Oc1nsnc(Cl)c1=O [Compound 55, 3-chloro-5-(4-chloro-2-methylphenoxy)-4H--1,2,6-thiadiazin-4-one] | 1 (10-40) | 0 (0-10) | 0 (0-10) | 0 (0-10) | 0 | 13 | 17 | 20
2 | Cc1ccc(Cl)c(Oc2nsnc(Cl)c2=O)c1 [Compound 56, 3-chloro-5-[(2-chloro-5-methyl)phenoxy]-4H--1,2,6-thiadiazin-4-one] | 4 (80-100) | 0 (0-10) | 0 (0-10) | 0 (0-10) | 70 | 100 | 100 | 100
3 | Cc1ccc(Oc2nsnc(Cl)c2=O)c(Br)c1 [Compound 57, 3-[(2-bromo-4-methyl)-phenoxy]-5-chloro-4H--1,2,6-thiadiazin-4-one] | 4 (80-100) | 1 (10-40) | 0 (0-10) | 0 (0-10) | 88 | 100 | 100 | 100
4 | Cc1cc(Cl)c(Oc2nsnc(Cl)c2=O)cc1C [Compound 58, 3-chloro-5-[(2-chloro-4,5-dimethyl)phenoxy]-4H--1,2,6-thiadiazin-4-one] | 3 (60-80) | 2 (40-60) | 0 (0-10) | 0 (0-10) | 56 | 56 | 56 | 44
5 | Cc1cc(Oc2nsnc(Cl)c2=O)cc(C)c1Cl [Compound 59, 3-chloro-5-[(4-chloro-3,5-dimethyl)phenoxy]-4H--1,2,6-thiadiazin-4-one] | 4 (80-100) | 1 (10-40) | 1 (10-40) | 0 (0-10) | 50 | 56 | 69 | 56
6 | Cc1cc(Oc2nsnc(Cl)c2=O)cc(C)c1Br [Compound 60, 3-[(4-bromo-3,5-dimethyl)-phenoxy]-5-chloro-4H--1,2,6-thiadiazin-4-one] | 4 (80-100) | 2 (40-60) | 1 (10-40) | 0 (0-10) | 63 | 50 | 56 | 75
